“Also recorded” adds a separate entry of the source.
Columns and labels:
[1] = tested on: human colon carcinoma cells (HCT116); experiment: Cell proliferation, crystal violet method; format: cell-based; details: for HCT116 cell growth vs vehicle control: 100 μM, FIG. 3a, 3b, 13a, 13b; for IC50: crystal violet, spectrophotometer, read-out: IC50 anti-proliferative effect, CRC (HCT116)
Method: (§1) The compound according to the invention, and in particular the synthetic quercetin derivatives described and illustrated herein were investigated in vitro by using human tumour cells and assessing their impact on the tumour proliferative capacity, with regard to the tumours described above. In particular, the following human tumour cell lines were assessed experimentally: 1) HCT116, colon adenocarcinoma cells; 2) H1299, lung adenocarcinoma cells; 3) A375, melanoma cells, and 4) A431, squamous skin cell carcinoma; 5) 786-0, renal carcinoma cells; 6) PC3, prostate carcinoma cells; 7) BT549, mammary carcinoma cells; 8) CAL27, tongue carcinoma cells (belonging to the head-and-neck carcinomas); 9) HepG2, hepatocellular carcinoma cells; 10) PANC-1, pancreas carcinoma cells; 11) T24, bladder carcinoma cells; 12) OVCAR-3, ovarian carcinoma cells. In addition, a normal human cell line, WS1 (skin fibroblasts) was also treated with the novel synthetic compounds.
(§2) Cell proliferation was quantified by the crystal violet method with a spectrophotometer. In short, after acquiring serial images (0, 24 and 48 hrs) with the EVOS XL Cell Imaging System microscope (Thermo Fisher Scientific), the cells imaged at 48 hrs were fixed with paraformaldehyde (4%) and stained with Crystal Violet (1%). Then, the specific absorbance (λ=590 nm) at 48 hrs was measured with a spectrophotometer (Infinite®200 PRO, Tecan). Data analysis was carried out by using ad-hoc Excel files for graphical representation and statistical processing (t-test). Moreover, the results obtained with Crystal Violet were confirmed by using another cell proliferation assessment method based on the real time cellular analyzer XCELLigence RTCA DP (ACEA Biosciences, Inc.). This tool allows cell growth to be monitored from electrical impedance-derived quantitative values (the so-called Cell Index) measured by tiny electrodes located at the base of the culture wells. Proliferation is monitored for several days (5-7) by setting a Cell Index per minute measure on the instrument. The data are analysed by processing various parameters calculated by the dedicated software, such as the cell duplication time, the slope and the Max Cell Index.
(§3) Cell proliferation was quantitated spectrophotometrically by the crystal violet method.

[2] = tested on: human hepatocellular carcinoma cells (HepG2); experiment: Cell proliferation, crystal violet method; format: cell-based; details: for HepG2 tumour growth vs vehicle control: 80 μM, FIG. 8a, 8b; for IC50: crystal violet, spectrophotometer, read-out: IC50 anti-proliferative effect, HCC - HepG2
Method: as §1, §2, §3

[3] = tested on: human mammary carcinoma cells (BT549); experiment: Cell proliferation, crystal violet method; format: cell-based; details: for BT549 cell growth vs vehicle control: 80 μM, FIG. 6a, 6b; for IC50: crystal violet, spectrophotometer, read-out: IC50 anti-proliferative effect, BRC - (BT549)
Method: as §1, §2, §3

[4] = tested on: human melanoma cells (A375); experiment: Cell proliferation, crystal violet method; format: cell-based; details: for IC50: crystal violet, spectrophotometer, read-out: IC50 anti-proliferative effect, Melanoma (A375); for growth of melanoma cells (A375) vs vehicle control: 60 μM, FIG. 1a, 1b
Method: as §1, §2, §3

[5] = tested on: human tongue carcinoma cells (Cal27); experiment: Cell proliferation, crystal violet method; format: cell-based; details: for Cal27 tumour growth vs vehicle control: 80 μM, FIG. 7a, 7b; for IC50: crystal violet, spectrophotometer, read-out: IC50 anti-proliferative effect, HNC - (Cal27)
Method: as §1, §2, §3

[6] = tested on: H1299, lung adenocarcinoma cells; experiment: Cell proliferation, crystal violet method; format: cell-based, human; details: spectrophotometer, read-out: IC50 anti-proliferative effect, LC (H1299)
Method: as §1, §2, §3

[7] = tested on: human colon (HCT116) tumour line; experiment: Apoptosis, acridine orange/ethidium bromide method; format: cell-based; details: 2 hrs; Compound 2 50 μM, 5 40 μM, 4 40 μM, 3 60 μM, 1 60 μM; FIG. 18
From the text: Tumour cell apoptosis was quantified by the acridine orange/ethidium bromide (AO/EB) method and by using a fluorescence microscope and image-J. In short, after treatment with the test compounds (2 hrs), the tumour cells were placed in contact with an AO/EB solution (in sterile H2O) and photographed with a fluorescence microscope (Leica) by using the ≥20× objective (so as to distinguish the morphology of cell nuclei). In this way, the living cells are labelled with AO and emit fluorescence in the green channel, while the necrotic cells, which have undergone the rupture of the plasma membrane, are permeable to EB and emit fluorescence in the red channel. In contrast, apoptotic cells are permeable to both AO and EB, and as a consequence of the colocalization of the two fluorescences appear yellow-orange when the two individual microscope-acquired fluorescences are superimposed by using the editing program Image J. The objective quantification of the colocalization areas (apoptotic cells) and the non-colocalization areas (living or necrotic cells) was carried out on a number of cells ≥300/condition through the use of Apoptosis Correlator (ImageJ plug-in) and shown as the percentage of living (green), necrotic (red) or apoptotic (yellow-orange) tumour cells. Data analysis was carried out by using GraphPad Prism 6 for graphical representation and statistical processing (2-way ANOVA test).

[8] = tested on: normal cells (human skin fibroblasts, WS1); experiment: Apoptosis, acridine orange/ethidium bromide method; format: cell-based; details: 2 hrs; Compound 2 40 μM, 5 40 μM, 4 40 μM, 3 60 μM, 1 80 μM; FIG. 18
[9] = tested on: SCC cells (A431); experiment: Cell proliferation, crystal violet method; format: cell-based, human; details: for A431 cell growth vs vehicle control: 90 μM, FIG. 2a, 2b; for IC50: crystal violet, spectrophotometer, read-out: IC50 anti-proliferative effect, SCC (A431)
Method: as §2, with “The compound according to the invention, and in particular the synthetic quercetin derivatives described and illustrated herein were investigated in vitro by using human tumour cells and assessing their impact on the tumour proliferative capacity, with regard to the tumours described above. In particular, the following human tumour cell lines were assessed experimentally: 1) HCT116, colon adenocarcinoma cells; 2) H1299, lung adenocarcinoma cells; 3) A375, melanoma cells, and 4) A431, squamous skin cell carcinoma; 5) 786-0, renal carcinoma cells; 6) PC3, prostate carcinoma cells; 7) BT549, mammary carcinoma cells; 8) CAL27, tongue carcinoma cells (belonging to the head-and-neck carcinomas); 9) HepG2, hepatocellular carcinoma cells; 10) PANC-1, pancreas carcinoma cells; 11) T24, bladder carcinoma cells; 12) OVCAR-3, ovarian carcinoma cells. In addition, a normal human cell line, WS1 (skin fibroblasts) was also treated with the novel synthetic compounds. Cell proliferation” for “Cell proliferation”, “Cell Index. […] Cell proliferation was quantitated spectrophotometrically by the crystal violet method.” for “Cell Index.”

Row | Substance | IC50 [1] | IC50 [2] | IC50 [3] | IC50 [4] | IC50 [5] | IC50 [6] | IC50 [9] | HCT116 cell growth vs vehicle control [1] | HepG2 tumour growth vs vehicle control [2] | BT549 cell growth vs vehicle control [3] | Cal27 tumour growth vs vehicle control [5] | induction of apoptosis in HCT116 [7] | induction of apoptosis in normal cells WS1 [8] | growth of melanoma cells (A375) vs vehicle control [4] | A431 cell growth vs vehicle control [9]
1 | 2-(3,4-Dihydroxyphenyl)-3-hexadecyloxy-5,7-dihydroxy-4H-chromen-4-one [Compound 3] | 59.8 µM | 50.2 µM | 119 µM | 48.1 µM | 36.7 µM | 34.9 µM | – | significantly inhibit | significantly inhibit; also recorded: superior to that of quercetin | significantly inhibit | significantly inhibit | induced apoptosis | not in normal cells | – | –
2 | 2-(3,4-Dihydroxyphenyl)-3-ethoxy-5,7-dihydroxy-4H-chromen-4-one [Compound 1] | 166 µM | 144 µM | 191 µM | 67.1 µM | 15.6 µM | 100 µM | – | – | significantly inhibit | significantly inhibit | significantly inhibit | induced apoptosis | not in normal cells | – | –
3 | 2-(3,4-Dihydroxyphenyl)-3-hexyloxy-5,7-dihydroxy-4H-chromen-4-one [Compound 2] | 42.8 µM | 265 µM | 156 µM | 19.3 µM | 63.2 µM | 50.7 µM | 40.3 µM | significantly inhibit | significantly inhibit | significantly inhibit | significantly inhibit | induced apoptosis | not in normal cells | significantly inhibit | significantly inhibit

The next substances have a lower IC50 [1] than those just listed; values first:

Row | IC50 [1] | IC50 [2] | IC50 [3] | IC50 [4] | IC50 [5] | IC50 [6] | IC50 [9] | Substance | HCT116 cell growth vs vehicle control [1] | HepG2 tumour growth vs vehicle control [2] | BT549 cell growth vs vehicle control [3] | Cal27 tumour growth vs vehicle control [5] | induction of apoptosis in HCT116 [7] | induction of apoptosis in normal cells WS1 [8] | growth of melanoma cells (A375) vs vehicle control [4] | A431 cell growth vs vehicle control [9]
4 | 22.9 µM | 54.4 µM | 48.6 µM | 20.1 µM | 22.9 µM | 15.9 µM | 31 µM | 2-(3,4-dihydroxyphenyl)-5,7-dihydroxy-4-oxo-4H-chromen-3-yl acetate [Compound 4] | significantly inhibit | significantly inhibit; also recorded: superior to that of quercetin | significantly inhibit | significantly inhibit | induced apoptosis | not in normal cells | significantly inhibit | significantly inhibit
5 | 28.8 µM | 106 µM | 46.5 µM | 16.4 µM | 19.7 µM | 50.5 µM | 25.5 µM | 2-(3,4-dihydroxyphenyl)-5,7-dihydroxy-4-oxo-4H-chromen-3-yl palmitate [Compound 5] | significantly inhibit | significantly inhibit; also recorded: superior to that of quercetin | significantly inhibit | significantly inhibit; also recorded: superior to that of quercetin | induced apoptosis | not in normal cells | significantly inhibit | significantly inhibit
